# According to ChEMBL document CHEMBL5131459, “Semisynthesis and neurotrophic activity studies of novel neomajucin/majucin derivatives as neurotrophin small molecule mimetics” (Bioorg Med Chem Lett, 2022):
# Active and inactive are the calls of the source. No cut-off for these calls is given here.
# Experiments:
# PC-12 [1] = assay: Neuroprotective activity in […] cells assessed as induction of NGF-mediated neurite outgrowth by measuring differentiation rate of neurite-beating cells at 10 uM incubated for 72 hrs (reference value: 4.27 +/- 0.04 %); type: functional, Rattus norvegicus
# PC-12 [2] = assay: Neuroprotective activity in […] cells assessed as induction of NGF-mediated neurite outgrowth by measuring protrusion length extension at 10 uM by methylene blue staining based light microscopic analysis; type: functional, cell-based; conditions: Rattus norvegicus
# PC-12 [3] = assay: Neuroprotective activity against MPP+-induced cell injury in […] cells assessed as cell survival rate at 20 uM (reference value: 68.60 +/- 1.06 %); type: functional; conditions: Rattus norvegicus, read-out: Survival
# [4] = Cytotoxicity against […] cells assessed as inhibition of cell growth by CCK-8 assay; type: toxicity, cell-based; conditions: rat
Compound,Activity (PC-12 [1]),also measured
C[C@@H]1CC[C@@]2(O)[C@@]13C[C@@H](OC(=O)[C@@H]3O)[C@@]1(OC(=O)CCc3ccc(Br)cc3)C(=O)OC[C@@]21C,6.85%,
C[C@@H]1CC[C@@]2(O)[C@@]13C[C@@H](OC(=O)[C@@H]3O)[C@@]1(OC(=O)CCc3cccc(F)c3)C(=O)OC[C@@]21C,5.7%,
C[C@@H]1CC[C@@]2(O)[C@@]13C[C@@H](OC(=O)[C@@H]3O)[C@@]1(OC(=O)Cc3ccc(Cl)cc3)C(=O)OC[C@@]21C,5.52%,
C[C@@H]1CC[C@@]2(O)[C@@]13C[C@@H](OC(=O)[C@@H]3O)[C@@]1(O)C(=O)OC[C@@]21C,8.76%,
C[C@@H]1C[C@@H](OC(=O)CCc2cccc(Br)c2)[C@@]2(O)[C@@]13C[C@@H](OC(=O)[C@@H]3O)[C@@]1(OC(=O)CCc3cccc(Br)c3)C(=O)OC[C@@]21C,5.1%,
C[C@@H]1C[C@@H](OC(=O)CCC(=O)c2ccccc2)[C@@]2(O)[C@@]13C[C@@H](OC(=O)[C@@H]3O)[C@@]1(OC(=O)CCC(=O)c3ccccc3)C(=O)OC[C@@]21C,5.25%,
C[C@@H]1CC[C@@]2(O)[C@@]13C[C@@H](OC(=O)[C@@H]3O)[C@@]1(OC(=O)Cc3ccc4ccccc4c3)C(=O)OC[C@@]21C,5.55%,
COc1ccc(CC(=O)O[C@]23C(=O)OC[C@@]2(C)[C@@]2(O)CC[C@@H](C)[C@]24C[C@H]3OC(=O)[C@@H]4O)cc1,5.27%,
C[C@@H]1CC[C@@]2(O)[C@@]13C[C@@H](OC(=O)[C@@H]3O)[C@@]1(OC(=O)CCc3cccc(Br)c3)C(=O)OC[C@@]21C,5.04%,
C[C@@H]1C[C@@H](O)[C@@]2(O)[C@@]13C[C@@H](OC(=O)[C@@H]3O)[C@@]1(O)C(=O)OC[C@@]21C,6.25%,
C[C@@H]1CC[C@@]2(O)[C@@]13C[C@@H](OC(=O)[C@@H]3O)[C@@]1(OC(=O)CCc3ccccc3)C(=O)OC[C@@]21C,10.04%,
C[C@@H]1CC[C@@]2(O)[C@@]13C[C@@H](OC(=O)[C@@H]3O)[C@@]1(OC(=O)CCc3ccc(Cl)cc3)C(=O)OC[C@@]21C,6.05%,
C[C@@H]1C[C@@H](OC(=O)CCc2cccc(F)c2)[C@@]2(O)[C@@]13C[C@@H](OC(=O)[C@@H]3O)[C@@]1(OC(=O)CCc3cccc(F)c3)C(=O)OC[C@@]21C,4.93%,
C[C@@H]1C[C@@H](OC(=O)CCc2ccc(Cl)cc2)[C@@]2(O)[C@@]13C[C@@H](OC(=O)[C@@H]3O)[C@@]1(O)C(=O)OC[C@@]21C,5.03%,
C[C@@H]1C[C@@H](OC(=O)CCc2ccccc2)[C@@]2(O)[C@@]13C[C@@H](OC(=O)[C@@H]3O)[C@@]1(OC(=O)CCc3ccccc3)C(=O)OC[C@@]21C,5.47%,
C[C@@H]1CC[C@@]2(O)[C@@]13C[C@@H](OC(=O)[C@@H]3O)[C@@]1(OC(=O)CCCBr)C(=O)OC[C@@]21C,6.04%,
C[C@@H]1C[C@@H](OC(=O)CCc2cccc(Br)c2)[C@@]2(O)[C@@]13C[C@@H](OC(=O)[C@@H]3O)[C@@]1(O)C(=O)OC[C@@]21C,5.56%,
C[C@@H]1CC[C@@]2(O)[C@@]13C[C@@H](OC(=O)[C@@H]3O)[C@@]1(OC(=O)Cc3cccc(Br)c3)C(=O)OC[C@@]21C,6.91%,
C[C@@H]1CC[C@@]2(O)[C@@]13C[C@@H](OC(=O)[C@@H]3O)[C@@]1(OC(=O)CCC(=O)c3ccccc3)C(=O)OC[C@@]21C,8.79%,
C[C@@H]1C[C@@H](OC(=O)CCC(=O)c2ccccc2)[C@@]2(O)[C@@]13C[C@@H](OC(=O)[C@@H]3O)[C@@]1(O)C(=O)OC[C@@]21C,6.42%,
C[C@@H]1C[C@@H](OC(=O)CCc2ccc(Cl)cc2)[C@@]2(O)[C@@]13C[C@@H](OC(=O)[C@@H]3O)[C@@]1(OC(=O)CCc3ccc(Cl)cc3)C(=O)OC[C@@]21C,5.21%,

Compound,Activity (PC-12 [1]),also measured
C[C@@H]1C[C@@H](OC(=O)CCc2ccc(F)cc2)[C@@]2(O)[C@@]13C[C@@H](OC(=O)[C@@H]3O)[C@@]1(OC(=O)CCc3ccc(F)cc3)C(=O)OC[C@@]21C,9.41%,
C[C@@H]1CC[C@@]2(O)[C@@]13C[C@@H](OC(=O)[C@@H]3O)[C@@]1(OC(=O)CCCCBr)C(=O)OC[C@@]21C,5.28%,
C[C@@H]1C[C@@H](OC(=O)CCc2cccc(Cl)c2)[C@@]2(O)[C@@]13C[C@@H](OC(=O)[C@@H]3O)[C@@]1(OC(=O)CCc3cccc(Cl)c3)C(=O)OC[C@@]21C,4.54%,
C[C@@H]1CC[C@@]2(O)[C@@]13C[C@@H](OC(=O)[C@@H]3O)[C@@]1(OC(=O)CCc3cccc(Cl)c3)C(=O)OC[C@@]21C,4.88%,
C[C@@H]1CC[C@@]2(O)[C@@]13C[C@@H](OC(=O)[C@@H]3O)[C@@]1(OC(=O)Cc3ccc(Br)cc3)C(=O)OC[C@@]21C,4.9%,
C[C@@H]1C[C@@H](OC(=O)CCc2ccc(Br)cc2)[C@@]2(O)[C@@]13C[C@@H](OC(=O)[C@@H]3O)[C@@]1(OC(=O)CCc3ccc(Br)cc3)C(=O)OC[C@@]21C,8.73%,
C[C@@H]1C[C@@H](OC(=O)CCc2ccc(Br)cc2)[C@@]2(O)[C@@]13C[C@@H](OC(=O)[C@@H]3O)[C@@]1(O)C(=O)OC[C@@]21C,10.02%,
C[C@@H]1CC[C@@]2(O)[C@@]13C[C@@H](OC(=O)[C@@H]3O)[C@@]1(OC(=O)Cc3ccc(F)cc3)C(=O)OC[C@@]21C,5.85%,
C[C@@H]1C[C@@H](OC(=O)CCc2ccc(F)cc2)[C@@]2(O)[C@@]13C[C@@H](OC(=O)[C@@H]3O)[C@@]1(O)C(=O)OC[C@@]21C,10.96%,Activity (PC-12 [2]): Active
C[C@@H]1CC[C@@]2(O)[C@@]13C[C@@H](OC(=O)[C@@H]3O)[C@@]1(OC(=O)/C=C/c3ccccc3)C(=O)OC[C@@]21C,5.38%,
C[C@@H]1CC[C@@]2(O)[C@@]13C[C@@H](OC(=O)[C@@H]3O)[C@@]1(OC(=O)Cc3cccc(Cl)c3)C(=O)OC[C@@]21C,5.53%,
C[C@@H]1CC[C@@]2(O)[C@@]13C[C@@H](OC(=O)[C@@H]3O)[C@@]1(OC(=O)Cc3cccc(F)c3)C(=O)OC[C@@]21C,5.9%,
C[C@@H]1C[C@@H](OC(=O)CCc2cccc(F)c2)[C@@]2(O)[C@@]13C[C@@H](OC(=O)[C@@H]3O)[C@@]1(O)C(=O)OC[C@@]21C,5.78%,
COc1cc(CC(=O)O[C@]23C(=O)OC[C@@]2(C)[C@@]2(O)CC[C@@H](C)[C@]24C[C@H]3OC(=O)[C@@H]4O)cc(OC)c1OC,6.06%,
C/C=C/C=C/C(=O)O[C@@H]1C[C@@H](C)[C@@]23C[C@@H](OC(=O)[C@@H]2O)[C@@]2(O)C(=O)OC[C@@]2(C)[C@@]13O,11.83%,Activity (PC-12 [2]): Active; viability at 20 µM (PC-12 [3]): 68.5%; IC50 [4]: > 512 µg/mL
C/C=C/C=C/C(=O)O[C@]12C(=O)OC[C@@]1(C)[C@@]1(O)CC[C@@H](C)[C@]13C[C@H]2OC(=O)[C@@H]3O,11.02%,Activity (PC-12 [2]): Active; viability at 20 µM (PC-12 [3]): 72.5%; IC50 [4]: > 512 µg/mL
C/C=C/C=C/C(=O)O[C@@H]1C[C@@H](C)[C@@]23C[C@@H](OC(=O)[C@@H]2O)[C@@]2(OC(=O)/C=C/C=C/C)C(=O)OC[C@@]2(C)[C@@]13O,5.13%,
C[C@@H]1CC[C@@]2(O)[C@@]13C[C@@H](OC(=O)[C@@H]3O)[C@@]1(OC(=O)CCc3ccc(F)cc3)C(=O)OC[C@@]21C,8.99%,
C[C@@H]1C[C@@H](OC(=O)CCc2ccccc2)[C@@]2(O)[C@@]13C[C@@H](OC(=O)[C@@H]3O)[C@@]1(O)C(=O)OC[C@@]21C,9.67%,
C[C@@H]1C[C@@H](OC(=O)CCc2cccc(Cl)c2)[C@@]2(O)[C@@]13C[C@@H](OC(=O)[C@@H]3O)[C@@]1(O)C(=O)OC[C@@]21C,4.69%,
